Measurements taken from ChEMBL document CHEMBL4028802, “DILIrank: the largest reference drug list ranked by the risk for developing drug-induced liver injury in humans” (Drug Discov Today, 2016).
Starred links: 1 amine or outer side, 2 acyl side, 3 side chain; linkers in the order of their positions; H or OH if unused. Positions of bridges follow the written chain, without caps; N, C: chain ends. Non-standard residues stand in square brackets, D forms with d. Residues, ends and D or L forms follow the SMILES beside them. *: point of attachment. hTyr(3S-OH,4S-OH,3'-OSO3H) = N[C@H](C(=O)O)[C@H](O)[C@@H](O)c1ccc(O)c(OS(=O)(=O)O)c1; Orn(4R-OH,5R-OH) = O=C([C@H](C[C@@H](O)[C@@H](O)N[*:3])N[*:1])[*:2]; Pro(3S-OH,4S-Me) = C[C@H]1CN[C@H](C(=O)O)[C@H]1O; X1 = CCCCCOc1ccc(-c2cc(-c3ccc(C(=O)*)cc3)no2)cc1; Gln(3R-OH) = NC(=O)C[C@@H](O)[C@H](N)C(=O)O; Hyp = O=C(O)[C@@H]1C[C@@H](O)CN1

Key:
Homo sapiens [1] = species on record: Homo sapiens; experiment: Liver toxicity in human assessed as induction of drug-induced liver injury by measuring severity class index
Homo sapiens [2] = species on record: Homo sapiens; experiment: Liver toxicity in human assessed as induction of drug-induced liver injury by measuring verified drug-induced liver injury concern status
For DILI severity class in this document: key of the grades not given here.

SMILES | DILI_severity_class (Homo sapiens [1]) | DILI_Concern (Homo sapiens [2])
COc1ccccc1OCC(O)COC(N)=O (stereo unspecified) [METHOCARBAMOL] | 5 | Ambiguous-Dili-Concern
C=CCC1(C(C)C#CCC)C(=O)N=C(O)N(C)C1=O (stereo unspecified) [METHOHEXITAL] | 3 | Ambiguous-Dili-Concern
CN(Cc1cnc2nc(N)nc(N)c2n1)c1ccc(C(=O)N[C@@H](CCC(=O)O)C(=O)O)cc1 [METHOTREXATE] | 3 | Most-Dili-Concern
COc1c2occc2cc2ccc(=O)oc12 [METHOXSALEN] | 3 | Less-Dili-Concern
C[N+]1(C)[C@@H]2C[C@@H](OC(=O)[C@H](CO)c3ccccc3)C[C@H]1[C@@H]1O[C@@H]12.[Br-] [METHSCOPOLAMINE BROMIDE] | 0 | No-Dili-Concern
CN1C(=O)CC(C)(c2ccccc2)C1=O (stereo unspecified) [METHSUXIMIDE] | 0 | No-Dili-Concern
CN1C(CCl)Nc2cc(Cl)c(S(N)(=O)=O)cc2S1(=O)=O (stereo unspecified) [METHYCLOTHIAZIDE] | 2 | Ambiguous-Dili-Concern
C[C@](N)(Cc1ccc(O)c(O)c1)C(=O)O [METHYLDOPA] | 8 | Most-Dili-Concern
CC[C@@H](CO)NC(=O)[C@@H]1C=C2c3cccc4[nH]cc(c34)C[C@H]2N(C)C1 [METHYLERGONOVINE] | 0 | No-Dili-Concern
C[N+]1(CC2CC2)CC[C@]23c4c5ccc(O)c4O[C@H]2C(=O)CC[C@@]3(O)[C@H]1C5.[Br-] (stereo partly specified) [METHYLNALTREXONE BROMIDE] | 0 | No-Dili-Concern
COC(=O)C(c1ccccc1)C1CCCCN1 (stereo unspecified) [METHYLPHENIDATE] | 3 | Less-Dili-Concern
C[C@H]1C[C@@H]2[C@H]([C@@H](O)C[C@@]3(C)[C@H]2CC[C@]3(O)C(=O)CO)[C@@]2(C)C=CC(=O)C=C12 [METHYLPREDNISOLONE] | 3 | Less-Dili-Concern
C[C@]12CCC(=O)C=C1CC[C@@H]1[C@@H]2CC[C@@]2(C)[C@H]1CC[C@]2(C)O [METHYLTESTOSTERONE] | 2 | Less-Dili-Concern
CC[C@@H](CO)NC(=O)[C@@H]1C=C2c3cccc4c3c(cn4C)C[C@H]2N(C)C1 [METHYSERGIDE] | 0 | No-Dili-Concern
CCN(CC)CCNC(=O)c1cc(Cl)c(N)cc1OC [METOCLOPRAMIDE] | 5 | Less-Dili-Concern
Cc1ccccc1N1C(=O)c2cc(S(N)(=O)=O)c(Cl)cc2NC1C (stereo unspecified) [METOLAZONE] | 3 | Ambiguous-Dili-Concern
COCCc1ccc(OCC(O)CNC(C)C)cc1.COCCc1ccc(OCC(O)CNC(C)C)cc1.O=C(O)CCC(=O)O (stereo unspecified) [METOPROLOL SUCCINATE] | 3 | Ambiguous-Dili-Concern
COCCc1ccc(OCC(O)CNC(C)C)cc1 (stereo unspecified) [METOPROLOL] | 5 | Less-Dili-Concern
Cc1ncc([N+](=O)[O-])n1CCO [METRONIDAZOLE] | 3 | Less-Dili-Concern
CC(C)(C(=O)c1cccnc1)c1cccnc1 [METYRAPONE] | 0 | No-Dili-Concern

SMILES | DILI_severity_class (Homo sapiens [1]) | DILI_Concern (Homo sapiens [2])
C[C@](N)(Cc1ccc(O)cc1)C(=O)O [METYROSINE] | 0 | No-Dili-Concern
Cc1cccc(C)c1OCC(C)N (stereo unspecified) [MEXILETINE] | 3 | Most-Dili-Concern
CCCCCOc1ccc(-c2cc(-c3ccc(C(=O)N[C@H]4C[C@@H](O)[C@@H](O)NC(=O)[C@@H]5[C@@H](O)[C@@H](C)CN5C(=O)[C@H]([C@H](O)CC(N)=O)NC(=O)[C@H]([C@H](O)[C@@H](O)c5ccc(O)c(OS(=O)(=O)O)c5)NC(=O)[C@@H]5C[C@@H](O)CN5C(=O)[C@H]([C@@H](C)O)NC4=O)cc3)no2)cc1 [MICAFUNGIN] (X1-[Orn(4R-OH,5R-OH)]T[Hyp][hTyr(3S-OH,4S-OH,3'-OSO3H)][Gln(3R-OH)][Pro(3S-OH,4S-Me)]; lactam 1-C) | 7 | Most-Dili-Concern
Cc1ncc2n1-c1ccc(Cl)cc1C(c1ccccc1F)=NC2 [MIDAZOLAM] | 0 | No-Dili-Concern
COc1ccc(OC)c(C(O)CNC(=O)CN)c1 (stereo unspecified) [MIDODRINE] | 0 | No-Dili-Concern
CC#C[C@]1(O)CC[C@H]2[C@@H]3CCC4=CC(=O)CCC4=C3[C@@H](c3ccc(N(C)C)cc3)C[C@@]21C [MIFEPRISTONE] | 0 | No-Dili-Concern
OCCN1C[C@H](O)[C@@H](O)[C@H](O)[C@H]1CO [MIGLITOL] | 0 | No-Dili-Concern
Cc1[nH]c(=O)c(C#N)cc1-c1ccncc1 [MILRINONE] | 3 | Ambiguous-Dili-Concern
CN(C)c1ccc(O)c2c1C[C@H]1C[C@H]3[C@H](N(C)C)C(O)=C(C(N)=O)C(=O)[C@@]3(O)C(O)=C1C2=O [MINOCYCLINE] | 8 | Most-Dili-Concern
Nc1cc(N2CCCCC2)nc(N)[n+]1[O-] [MINOXIDIL] | 0 | No-Dili-Concern
CN1CCN2c3ncccc3Cc3ccccc3C2C1 (stereo unspecified) [MIRTAZAPINE] | 3 | Less-Dili-Concern
Clc1ccc(C(c2ccccc2Cl)C(Cl)Cl)cc1 (stereo unspecified) [MITOTANE] | 0 | No-Dili-Concern
O=C1c2c(O)ccc(O)c2C(=O)c2c(NCCNCCO)ccc(NCCNCCO)c21 [MITOXANTRONE] | 3 | Less-Dili-Concern
NC(=O)C[S+]([O-])C(c1ccccc1)c1ccccc1 (stereo unspecified) [MODAFINIL] | 3 | Less-Dili-Concern
CCOC(=O)[C@H](CCc1ccccc1)N[C@@H](C)C(=O)N1Cc2cc(OC)c(OC)cc2C[C@H]1C(=O)O [MOEXIPRIL] | 3 | Ambiguous-Dili-Concern
CC(C)(O)c1ccccc1CC[C@@H](SCC1(CC(=O)O)CC1)c1cccc(/C=C/c2ccc3ccc(Cl)cc3n2)c1 [MONTELUKAST] | 3 | Less-Dili-Concern
CCOC(=O)Nc1ccc2c(c1)N(C(=O)CCN1CCOCC1)c1ccccc1S2 [MORICIZINE] | 5 | Ambiguous-Dili-Concern
CN1CC[C@]23c4c5ccc(O)c4O[C@H]2[C@@H](O)C=C[C@H]3[C@H]1C5 [MORPHINE] | 0 | No-Dili-Concern
COc1c(N2C[C@@H]3CCCN[C@@H]3C2)c(F)cc2c(=O)c(C(=O)O)cn(C3CC3)c12 [MOXIFLOXACIN] | 8 | Less-Dili-Concern
CC(=O)Oc1cc(C(C)C)c(OCCN(C)C)cc1C [MOXISYLYTE] | 8 | Most-Dili-Concern

SMILES | DILI_severity_class (Homo sapiens [1]) | DILI_Concern (Homo sapiens [2])
COc1c(C)c2c(c(O)c1C/C=C(\C)CCC(=O)OCCN1CCOCC1)C(=O)OC2 [MYCOPHENOLATE MOFETIL] | 3 | Less-Dili-Concern
COc1c(C)c2c(c(O)c1C/C=C(\C)CCC(=O)O)C(=O)OC2 [MYCOPHENOLIC ACID] | 3 | Ambiguous-Dili-Concern
CCCCCCC(C)(C)c1cc(O)c2c(c1)OC(C)(C)C1CCC(=O)CC21 (stereo unspecified) [NABILONE] | 0 | No-Dili-Concern
COc1ccc2cc(CCC(C)=O)ccc2c1 [NABUMETONE] | 3 | Ambiguous-Dili-Concern
CC(C)(C)NCC(O)COc1cccc2c1CC(O)C(O)C2 (stereo unspecified) [NADOLOL] | 3 | Ambiguous-Dili-Concern
CCOc1ccc2ccccc2c1C(=O)N[C@@H]1C(=O)N2[C@@H]1SC(C)(C)[C@@H]2C(=O)O [NAFCILLIN] | 3 | Less-Dili-Concern
Oc1ccc2c3c1O[C@H]1[C@@H](O)CC[C@@]4(O)[C@@H](C2)N(CC2CCC2)CC[C@]314 [NALBUPHINE] | 0 | No-Dili-Concern
CCn1cc(C(=O)O)c(=O)c2ccc(C)nc21 [NALIDIXIC ACID] | 3 | Ambiguous-Dili-Concern
C=C1CC[C@@]2(O)[C@H]3Cc4ccc(O)c5c4[C@@]2(CCN3CC2CC2)[C@H]1O5.Cl [NALMEFENE HYDROCHLORIDE] | 3 | Ambiguous-Dili-Concern
C=CCN1CC[C@]23c4c5ccc(O)c4O[C@H]2C(=O)CC[C@@]3(O)[C@H]1C5 [NALOXONE] | 0 | No-Dili-Concern
O=C1CC[C@@]2(O)[C@H]3Cc4ccc(O)c5c4[C@@]2(CCN3CC2CC2)[C@H]1O5 [NALTREXONE] | 3 | Ambiguous-Dili-Concern
CCCCCCCCCC(=O)O[C@H]1CC[C@H]2[C@@H]3CCC4=CC(=O)CC[C@@H]4[C@H]3CC[C@]12C [NANDROLONE DECANOATE] | 7 | Most-Dili-Concern
COc1ccc2cc([C@H](C)C(=O)O)ccc2c1 [NAPROXEN] | 3 | Less-Dili-Concern
CC(C)[C@H]1CC[C@H](C(=O)N[C@H](Cc2ccccc2)C(=O)O)CC1 [NATEGLINIDE] | 3 | Ambiguous-Dili-Concern
OC(CNCC(O)C1CCc2cc(F)ccc2O1)C1CCc2cc(F)ccc2O1 (stereo unspecified) [NEBIVOLOL] | 3 | Ambiguous-Dili-Concern
CCc1nn(CCCN2CCN(c3cccc(Cl)c3)CC2)c(=O)n1CCOc1ccccc1 [NEFAZODONE] | 8 | Most-Dili-Concern
COc1nc(N)nc2c1ncn2[C@@H]1O[C@H](CO)[C@@H](O)[C@@H]1O [NELARABINE] | 4 | Less-Dili-Concern
Cc1ccnc2c1NC(=O)c1cccnc1N2C1CC1 [NEVIRAPINE] | 8 | Most-Dili-Concern
